Source: PubChem BioAssay AID248 (DTP/NCI, 2004)
Values joined by “and” are separate entries in the source; they are usually repeats but may differ in a detail not shown here. Equal entries are not always repeated. Toxic doses and inconclusive results are not listed. No stated cut-off is given here; in the data, active means T/C of 150% or more; inactive means T/C below 125%.

System: L1210 leukemia ip in BDF1 mice, survival T/C
Test: NCI In Vivo Anticancer Drug Screen. Data for tumor model L1210 Leukemia (intraperitoneal) in B6D2F1 (BDF1) mice
Details: endpoint: mean survival time, higher = longer survival
How it was run: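 In this screen, tumor-bearing mice given compound are compared to those given vehicle, and their survival values are reported as a treated-to-control quotient.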

[1] = dose: 100.0 mg/kg/injection, schedule: Q01DX001 (ip), vehicle: saline with Tween-80
[2] = dose: 100.0 mg/kg/injection, schedule: Q01DX009 (ip), vehicle: saline with Tween-80
[3] = dose: 100.0 mg/kg/injection, schedule: Q04DX002 (ip), vehicle: saline with Tween-80
[4] = dose: 200.0 mg/kg/injection, schedule: Q01DX001 (ip), vehicle: saline with Tween-80
[5] = dose: 200.0 mg/kg/injection, schedule: Q01DX009 (ip), vehicle: saline with Tween-80
[6] = dose: 200.0 mg/kg/injection, schedule: Q04DX002 (ip), vehicle: saline with Tween-80
[7] = dose: 400.0 mg/kg/injection, schedule: Q01DX001 (ip), vehicle: saline with Tween-80
[8] = dose: 400.0 mg/kg/injection, schedule: Q01DX009 (ip), vehicle: saline with Tween-80
[9] = dose: 400.0 mg/kg/injection, schedule: Q04DX002 (ip), vehicle: saline with Tween-80
[10] = dose: 100.0 mg/kg/injection, schedule: Q01DX001 (ip), vehicle: saline
[11] = dose: 200.0 mg/kg/injection, schedule: Q01DX001 (ip), vehicle: saline
[12] = dose: 400.0 mg/kg/injection, schedule: Q01DX001 (ip), vehicle: saline
[13] = dose: 100.0 mg/kg/injection, schedule: Q01DX001 (ip), vehicle: carboxymethylcellulose (CMC)
[14] = dose: 200.0 mg/kg/injection, schedule: Q01DX001 (ip), vehicle: carboxymethylcellulose (CMC)
[15] = dose: 100.0 mg/kg/injection, schedule: Q04DX003 (ip), vehicle: saline with Tween-80
[16] = dose: 200.0 mg/kg/injection, schedule: Q04DX003 (ip), vehicle: saline with Tween-80
[17] = dose: 400.0 mg/kg/injection, schedule: Q04DX003 (ip), vehicle: saline with Tween-80
[18] = dose: 25.0 mg/kg/injection, schedule: Q01DX009 (ip), vehicle: water
[19] = dose: 50.0 mg/kg/injection, schedule: Q01DX009 (ip), vehicle: water
[20] = dose: 100.0 mg/kg/injection, schedule: Q04DX002 (ip), vehicle: Klucel (hydroxypropylcellulose) (HPC)
[21] = dose: 100.0 mg/kg/injection, schedule: Q04DX003 (ip), vehicle: Klucel (hydroxypropylcellulose) (HPC)
[22] = dose: 200.0 mg/kg/injection, schedule: Q04DX003 (ip), vehicle: Klucel (hydroxypropylcellulose) (HPC)
[23] = dose: 400.0 mg/kg/injection, schedule: Q04DX003 (ip), vehicle: Klucel (hydroxypropylcellulose) (HPC)
[24] = dose: 100.0 mg/kg/injection, schedule: Q04DX003 (ip), vehicle: saline

Measured: T/C

Cc1ccc(C)c(NC(=O)Oc2ccc(Cl)cc2C)c1
inactive: [1] 100 % of control and 91 % of control | [2] 86 % of control | [3] 92 % of control | [4] 98 % of control | [5] 100 % of control and 89 % of control | [6] 92 % of control | [7] 94 % of control and 100 % of control | [8] 99 % of control and 100 % of control | [9] 89 % of control

CCC(=O)c1ccc(Cc2ccc(C(=O)CC)cc2)cc1
inactive: dose: 125.0 mg/kg/injection, schedule: Q01DX001 (ip), vehicle: saline 104 % of control | dose: 250.0 mg/kg/injection, schedule: Q01DX001 (ip), vehicle: saline 101 % of control | dose: 500.0 mg/kg/injection, schedule: Q01DX001 (ip), vehicle: saline 93 % of control | dose: 1000.0 mg/kg/injection, schedule: Q01DX001 (ip), vehicle: saline 98 % of control

COc1cc(C2=N/C(=C\c3ccccc3O)C(=O)O2)cc(OC)c1OC
inactive: [3] 96 % of control | [6] 89 % of control | [9] 89 % of control

COc1cc(C2=C3C(=O)OCC3Cc3ccccc32)ccc1OCc1ccccc1 (stereo unspecified)
inactive: [10] 97 % of control | [11] 95 % of control | [12] 98 % of control

CCC(C)C(CN)(CCN1CCCCC1)Cc1cccc2ccccc12 (stereo unspecified)
inactive: dose: 12.5 mg/kg/injection, schedule: Q04DX003 (ip), vehicle: saline + alcohol 96 % of control | dose: 25.0 mg/kg/injection, schedule: Q04DX003 (ip), vehicle: saline + alcohol 93 % of control | dose: 50.0 mg/kg/injection, schedule: Q04DX003 (ip), vehicle: saline + alcohol 96 % of control

O=C(O)c1cccc(Nc2ccccc2C(=O)O)c1
inactive: [13] 90 % of control | [14] 92 % of control

CCN(CC)CCNc1nc(-c2cc(C(F)(F)F)cc(C(F)(F)F)c2)nc(C(Cl)(Cl)Cl)n1
inactive: dose: 100.0 mg/kg/injection, schedule: Q04DX002 (ip), vehicle: saline 88 % of control | dose: 200.0 mg/kg/injection, schedule: Q04DX002 (ip), vehicle: saline 101 % of control | dose: 400.0 mg/kg/injection, schedule: Q04DX002 (ip), vehicle: saline 88 % of control

COc1ccc(C=Nc2cc(Cl)ccc2O)cc1
inactive: [13] 89 % of control | [14] 95 % of control | dose: 400.0 mg/kg/injection, schedule: Q01DX001 (ip), vehicle: carboxymethylcellulose (CMC) 95 % of control

CC(OC(=O)Nc1ccccc1)C(=O)O (stereo unspecified)
inactive: [2] 92 % of control | [15] 96 % of control | [5] 92 % of control | [16] 101 % of control | [8] 95 % of control | [17] 96 % of control

CN=C(N)Nc1ccc(C(=O)Oc2ccc([N+](=O)[O-])cc2)cc1
inactive: [18] 112 % of control | [19] 102 % of control

O=NN(Cc1ccc(Cl)cc1)Nc1ncc[nH]1
inactive: [20] 101 % of control | dose: 200.0 mg/kg/injection, schedule: Q04DX002 (ip), vehicle: Klucel (hydroxypropylcellulose) (HPC) 96 % of control | dose: 400.0 mg/kg/injection, schedule: Q04DX002 (ip), vehicle: Klucel (hydroxypropylcellulose) (HPC) 93 % of control

O=C1OC(c2ccc(Cl)cc2)Sc2ccccc21 (stereo unspecified)
inactive: [15] 103 % of control | [16] 94 % of control | [17] 100 % of control

NC(CSCC(N)=NCC1C2CC3CC(C2)CC1C3)=NCC1C2CC3CC(C2)CC1C3 (stereo unspecified)
inactive: [20] 96 % of control

O=[N+]([O-])c1ccc(I)c(F)c1
inactive: [21] 100 % of control | [22] 100 % of control | [23] 104 % of control

O=C(O)CNC1CSSC1
inactive: [18] 106 % of control | [19] 106 % of control

O=C(O)/C=C/c1ccc(/C=C/C(=O)O)cc1
inactive: [2] 95 % of control | [15] 98 % of control | [5] 88 % of control | [16] 96 % of control | [8] 103 % of control | [17] 95 % of control

CCN(CC)COC(C)=O
inactive: [10] 103 % of control | [11] 106 % of control | [12] 106 % of control

O=C(O)CCCC1CCCCc2ccccc21 (stereo unspecified)
inactive: dose: 100.0 mg/kg/injection, schedule: Q04DX003 (ip), vehicle: acetone 103 % of control | dose: 200.0 mg/kg/injection, schedule: Q04DX003 (ip), vehicle: acetone 100 % of control | dose: 400.0 mg/kg/injection, schedule: Q04DX003 (ip), vehicle: acetone 110 % of control

Cc1ccc([N+](=O)[O-])cc1O
inactive: dose: 25.0 mg/kg/injection, schedule: Q04DX003 (ip), vehicle: saline 98 % of control | dose: 50.0 mg/kg/injection, schedule: Q04DX003 (ip), vehicle: saline 102 % of control | [10] 97 % of control | [24] 97 % of control

c1ccc(C23c4ccccc4C(=NC4CCCCC4)C2N3C2CCCCC2)cc1 (stereo unspecified)
inactive: [10] 94 % of control | dose: 100.0 mg/kg/injection, schedule: Q01DX009 (ip), vehicle: Klucel (hydroxypropylcellulose) (HPC) 97 % of control | [21] 93 % of control | [11] 104 % of control | dose: 200.0 mg/kg/injection, schedule: Q01DX009 (ip), vehicle: Klucel (hydroxypropylcellulose) (HPC) 92 % of control | [22] 94 % of control | [12] 110 % of control | dose: 400.0 mg/kg/injection, schedule: Q01DX009 (ip), vehicle: Klucel (hydroxypropylcellulose) (HPC) 91 % of control | [23] 98 % of control

O=C(O)C(O)c1ccc([N+](=O)[O-])cc1 (stereo unspecified)
inactive: dose: 75.0 mg/kg/injection, schedule: Q01DX001 (ip), vehicle: saline 92 % of control | [3] 95 % of control | dose: 150.0 mg/kg/injection, schedule: Q01DX001 (ip), vehicle: saline 94 % of control | [6] 103 % of control | dose: 300.0 mg/kg/injection, schedule: Q01DX001 (ip), vehicle: saline 90 % of control | [9] 100 % of control

Cc1cccc(C)c1N=Nc1cc[n+]([O-])cc1
inactive: dose: 6.25 mg/kg/injection, schedule: Q04DX003 (ip), vehicle: saline with Tween-80 92 % of control | dose: 12.5 mg/kg/injection, schedule: Q04DX003 (ip), vehicle: saline with Tween-80 95 % of control | dose: 25.0 mg/kg/injection, schedule: Q04DX003 (ip), vehicle: saline with Tween-80 102 % of control and 92 % of control | dose: 50.0 mg/kg/injection, schedule: Q04DX003 (ip), vehicle: saline with Tween-80 100 % of control

CNC(=O)N(C1CCCCC1)C1CCCCC1
inactive: [1] 109 % of control | [2] 94 % of control and 111 % of control | [3] 105 % of control and 108 % of control | [4] 109 % of control | [5] 86 % of control and 91 % of control | [6] 92 % of control and 108 % of control | [7] 108 % of control | [8] 101 % of control and 91 % of control | [9] 96 % of control and 108 % of control

CSc1nnc(-c2ccncc2)s1
inactive: [24] 104 % of control | dose: 200.0 mg/kg/injection, schedule: Q04DX003 (ip), vehicle: saline 107 % of control
